Measured values reported in patent US20260297092A1, “PYRAZOLOPYRIMIDINE DERIVATIVES AS INHIBITORS OF NLRP3” (Takeda Pharmaceutical Company Limited, priority 2023, published 2026).

Experiments:
[1] = tested on: NLRP3 inflammasome (IL-1β production in THP-1 cells); experiment: IL-1β TR-FRET Assay (percentage of inhibition at 300 nM, 6 μM or 10 μM); format: cell-based, human; conditions: Homo sapiens, LPS priming, ATP activation; for inhibition at 0.3 µM: THP-1, 300 nM, read-out: IL-1β inhibitory rate at 300 nM (%); for inhibition at 6 µM: THP-1, 6 μM, read-out: IL-1β inhibitory rate at 6 μM (%)
Procedure, shortened: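 Percent inhibition of IL-1β used DMSO wells as 0% and 3 μM MCC-950 wells as full inhibition, with supernatant read by HTRF. Beforehand, IFN-γ-differentiated (25 ng/mL, 24 h), LPS-primed (50 ng/mL, 24 h) THP-1 cells received compound 30 min before inflammasome activation by 20 mM ATP for 2 h.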

[2] = tested on: TNF-α (NF-κB pathway, THP-1 cells); experiment: TNF-α Assay (IC50); format: cell-based, human; conditions: Homo sapiens, 600 ng/mL LPS, 3 hours
Experimental: TNF-α Assay (Reported as IC50)
Monocytic THP-1 cells (ATCC: TIB-202) were maintained in accordance with the provider's instructions in RPMI media (Life Technologies, Cat #A10491-01); RPMI was supplemented with 10% heat inactivated fetal bovine serum (Hyclone Cat #SH30396.03). The cells were differentiated into macrophages by the addition of 25 ng/mL IFN-7 for 24 hours at 37° C./5% CO2. Media was exchanged with fresh media with no FBS. The cells were plated at 40,000 cells per well in 384-well flat-bottom cell culture plates (Costar 3764) containing compounds (added in 1:1000) in a 1:3.16 serial dilution series in DMSO and were incubated for 30 minutes at 37° C./5% CO2. The NF-κB pathway was activated with the addition of 600 ng/mL LPS and the cells were incubated for 3 hours at 37° C./5% CO2. At the end of the incubation period, supernatant ([…]) was removed, and TNF-alpha were monitored using an ELISA (Human TNF-α ELISA, R&D systems, Cat #DY210) according to the manufacturer's instructions. 100% inhibition is determined with positive control, TPCA-1.
The IC50 values in the TNF-α assay were calculated from a plot of percentage of inhibition versus the inhibitor concentration by a logistics curve fit according to: Y=[Bottom+(Top−Bottom)]/(1+10^[(Log IC50−X)·Hill Slope], where Y was the […] at the inhibitor concentration, X, “Bottom” was the lowest inhibition value, i.e., 0%, “Top” was the maximum inhibition value, i.e., 100%, and the “Hill Slope” described the slope of the sigmoidal curve between the “Bottom” and “Top” values. The curve fitting was conducted with internally developed software.

Row | IC50 [2] [µM] | Compound | inhibition at 0.3 µM [1] [%] | inhibition at 6 µM [1] [%]
1 | > 30 | CO[C@H]1CCCC[C@@H]1c1nc2nn(-c3c(C)cc(C)cc3O)cc2c(=O)[nH]1 (racemic) [Example 36, racemic mixture of 2-(2-hydroxy-4,6-dimethylphenyl)-6-[(1R,2S)-2-methoxycyclohexyl]-2,5-dihydro-4H-pyrazolo[3,4-d]pyrimidin-4-one and 2-(2-hydroxy-4,6-dimethylphenyl)-6-[(1S,2R)-2-methoxycyclohexyl]-2,5-dihydro-4H-pyrazolo [3,4-d]pyrimidin-4-one] | 97 | –
2 | > 30 | Cc1cc(C2CC2)cc(C)c1-n1cc2c(=O)[nH]c(-c3ccncn3)nc2n1 [Example 171, 2-(4-cyclopropyl-2,6-dimethylphenyl)-6-(pyrimidin-4-yl)-2,5-dihydro-4H-pyrazolo[3,4-d]pyrimidin-4-one] | 100 | –
3 | > 30 | Cc1cc(C)c(-n2cc3c(=O)[nH]c(-c4cnccn4)nc3n2)c(O)c1 [Example 61, 2-(2-hydroxy-4,6-dimethylphenyl)-6-(pyrazin-2-yl)-2,5-dihydro-4H-pyrazolo[3,4-d]pyrimidin-4-one] | 100 | –
4 | > 30 | COc1nc2nn(-c3c(C)cc(C4CC4)cc3CC(F)(F)F)cc2c(=O)[nH]1 [Example 230, 2-[4-cyclopropyl-2-methyl-6-(2,2,2-trifluoroethyl)phenyl]-6-methoxy-2,5-dihydro-4H-pyrazolo[3,4-d]pyrimidin-4-one] | – | 93
5 | > 30 | CCOc1nc2nn(-c3c(F)cc(Br)cc3Cl)cc2c(=O)[nH]1 [Example 133, 2-(4-bromo-2-chloro-6-fluorophenyl)-6-ethoxy-2,5-dihydro-4H-pyrazolo[3,4-d]pyrimidin-4-one] | 96 | –
6 | > 30 | CCOc1nc2nn(-c3c(C)cc(Cl)cc3F)cc2c(=O)[nH]1 [Example 65, 2-(4-chloro-2-fluoro-6-methylphenyl)-6-ethoxy-2,5-dihydro-4H-pyrazolo[3,4-d]pyrimidin-4-one] | 96 | –
7 | > 30 | Cc1cc(C)c(-n2cc3c(=O)[nH]c(C)nc3n2)c(O)c1 [Example 74, 2-(2-hydroxy-4,6-dimethylphenyl)-6-methyl-2,5-dihydro-4H-pyrazolo[3,4-d]pyrimidin-4-one] | 99 | –
8 | > 30 | CCOc1nc2nn(-c3c(F)cc(C)cc3CC(F)(F)F)cc2c(=O)[nH]1 [Example 134, 6-ethoxy-2-[2-fluoro-4-methyl-6-(2,2,2-trifluoroethyl)phenyl]-2,5-dihydro-4H-pyrazolo[3,4-d]pyrimidin-4-one] | 96 | –
9 | > 30 | O=c1[nH]c(C2CCOC2)nc2nn(-c3c(F)cc(C4CC4)cc3C(F)F)cc12 (stereo not drawn) [Example 296, 2-[4-cyclopropyl-2-(difluoromethyl)-6-fluorophenyl]-6-(oxolan-3-yl)-2,5-dihydro-4H-pyrazolo [3,4-d]pyrimidin-4-one] | – | 104
10 | > 30 | CCOc1nc2nn(-c3c(C)cc(Br)cc3C(F)F)cc2c(=O)[nH]1 [Example 213, 2-[4-bromo-2-(difluoromethyl)-6-methylphenyl]-6-ethoxy-2,5-dihydro-4H-pyrazolo[3,4-d]pyrimidin-4-one] | 104 | –
11 | > 30 | Cc1cc(C)c(-n2cc3c(=O)[nH]c(CN4CCOCC4)nc3n2)c(O)c1 [Example 62, 2-(2-hydroxy-4,6-dimethylphenyl)-6-[(morpholin-4-yl)methyl]-2,5-dihydro-4H-pyrazolo[3,4-d]pyrimidin-4-one] | 95 | –
12 | > 30 | CCOc1nc2nn(-c3ccc(C)cc3F)cc2c(=O)[nH]1 [Example 113, 6-ethoxy-2-(2-fluoro-4-methylphenyl)-2,5-dihydro-4H-pyrazolo[3,4-d]pyrimidin-4-one] | 67 | –
13 | > 30 | CCOc1nc2nn(-c3c(F)cc(OC(F)(F)F)cc3Br)cc2c(=O)[nH]1 [Example 104, 2-[2-bromo-6-fluoro-4-(trifluoromethoxy)phenyl]-6-ethoxy-2,5-dihydro-4H-pyrazolo[3,4-d]pyrimidin-4-one] | 99 | –
14 | > 30 | CCc1cc(C2(F)CC2)cc(C)c1-n1cc2c(=O)[nH]c(OC)nc2n1 [Example 301, 2-[2-ethyl-4-(1-fluorocyclopropyl)-6-methylphenyl]-6-methoxy-2,5-dihydro-4H-pyrazolo[3,4-d]pyrimidin-4-one] | – | 98
15 | > 30 | COCCOc1nc2nn(-c3c(C)cc(C4(F)CC4)cc3C)cc2c(=O)[nH]1 [Example 246, 2-[4-(1-fluorocyclopropyl)-2,6-dimethylphenyl]-6-(2-methoxyethoxy)-2,5-dihydro-4H-pyrazolo[3,4-d]pyrimidin-4-one] | – | 101
16 | > 30 | CCOc1cc(F)c(-n2cc3c(=O)[nH]c(OCC)nc3n2)c(Br)c1 [Example 158, 2-(2-bromo-4-ethoxy-6-fluorophenyl)-6-ethoxy-2,5-dihydro-4H-pyrazolo [3,4-d]pyrimidin-4-one] | 99 | –
17 | > 30 | CCOc1nc2nn(-c3c(O)cc(C)cc3OC(F)F)cc2c(=O)[nH]1 [Example 116, 2-[2-(difluoromethoxy)-6-hydroxy-4-methylphenyl]-6-ethoxy-2,5-dihydro-4H-pyrazolo[3,4-d]pyrimidin-4-one] | 96 | –
18 | > 30 | Cc1cc(C)c(-n2cc3c(=O)[nH]c(C4CC4)nc3n2)c(O)c1 [Example 6, 6-cyclopropyl-2-(2-hydroxy-4,6-dimethylphenyl)-2,5-dihydro-4H-pyrazolo[3,4-d]pyrimidin-4-one] | 98 | –
19 | > 30 | Cc1cc(C2CC2)cc(C)c1-n1cc2c(=O)[nH]c(OCCOC(F)F)nc2n1 [Example 288, 2-(4-cyclopropyl-2,6-dimethylphenyl)-6-[2-(difluoromethoxy)ethoxy]-2,5-dihydro-4H-pyrazolo[3,4-d]pyrimidin-4-one] | – | 99
20 | > 30 | O=c1[nH]c(C2CC2)nc2nn(-c3c(F)cc(C4CC4)cc3C(F)F)cc12 [Example 173, 6-cyclopropyl-2-[4-cyclopropyl-2-(difluoromethyl)-6-fluorophenyl]-2,5-dihydro-4H-pyrazolo[3,4-d]pyrimidin-4-one] | 108 | –
21 | > 30 | CCOc1nc2nn(-c3c(C)cc(C)cc3O)c(C)c2c(=O)[nH]1 [Example 37, 6-ethoxy-2-(2-hydroxy-4,6-dimethylphenyl)-3-methyl-2,5-dihydro-4H-pyrazolo[3,4-d]pyrimidin-4-one] | 101 | –
22 | > 30 | Cc1nccc(-c2nc3nn(-c4c(C)cc(C5CC5)cc4C)cc3c(=O)[nH]2)n1 [Example 287, 2-(4-cyclopropyl-2,6-dimethylphenyl)-6-(2-methylpyrimidin-4-yl)-2,5-dihydro-4H-pyrazolo[3,4-d]pyrimidin-4-one] | – | 99
23 | > 30 | Cc1cc(C)c(-n2cc3c(=O)[nH]c(-c4cc(C)ncn4)nc3n2)c(O)c1 [Example 58, 2-(2-hydroxy-4,6-dimethylphenyl)-6-(6-methylpyrimidin-4-yl)-2,5-dihydro-4H-pyrazolo[3,4-d]pyrimidin-4-one] | 100 | –
24 | > 30 | COCCOc1nc2nn(-c3c(C)cc(C)cc3O)cc2c(=O)[nH]1 [Example 22, 2-(2-hydroxy-4,6-dimethylphenyl)-6-(2-methoxyethoxy)-2,5-dihydro-4H-pyrazolo [3,4-d]pyrimidin-4-one] | 101 | –
25 | > 30 | CCOc1nc2nn(-c3c(F)cc(C)cc3C(F)F)cc2c(=O)[nH]1 [Example 63, 2-[2-(difluoromethyl)-6-fluoro-4-methylphenyl]-6-ethoxy-2,5-dihydro-4H-pyrazolo[3,4-d]pyrimidin-4-one] | 100 | –
26 | > 30 | C=Cc1cc(C)c(-n2cc3c(=O)[nH]c(OCC)nc3n2)c(F)c1 [Example 120, 2-(4-ethenyl-2-fluoro-6-methylphenyl)-6-ethoxy-2,5-dihydro-4H-pyrazolo[3,4-d]pyrimidin-4-one] | 101 | –

Row | Compound | IC50 [2] [µM] | inhibition at 0.3 µM [1] [%] | inhibition at 6 µM [1] [%]
27 | Cc1cc(C)c(-n2cc3c(=O)[nH]c(OCCCCN(C)C)nc3n2)c(O)c1 [Example 129, 6-[4-(dimethylamino)butoxy]-2-(2-hydroxy-4,6-dimethylphenyl)-2,5-dihydro-4H-pyrazolo[3,4-d]pyrimidin-4-one] | > 30 | 98 | –
